Results: patent US7504508B2, “PGD2 receptor antagonists for the treatment of inflammatory diseases” (Millennium Pharmaceuticals, Inc., priority 2002, dated 2009)

Molecular target: T1, cloned human CRTH2 receptor (Homo sapiens, UniProt Q9Y5Y4)
T1 construct: purchased Biosignal; host or cells: HEK-293 cells stably expressing human CRTH2 and G-alpha-16 (membranes)
T1 sequence (Q9Y5Y4 1-395): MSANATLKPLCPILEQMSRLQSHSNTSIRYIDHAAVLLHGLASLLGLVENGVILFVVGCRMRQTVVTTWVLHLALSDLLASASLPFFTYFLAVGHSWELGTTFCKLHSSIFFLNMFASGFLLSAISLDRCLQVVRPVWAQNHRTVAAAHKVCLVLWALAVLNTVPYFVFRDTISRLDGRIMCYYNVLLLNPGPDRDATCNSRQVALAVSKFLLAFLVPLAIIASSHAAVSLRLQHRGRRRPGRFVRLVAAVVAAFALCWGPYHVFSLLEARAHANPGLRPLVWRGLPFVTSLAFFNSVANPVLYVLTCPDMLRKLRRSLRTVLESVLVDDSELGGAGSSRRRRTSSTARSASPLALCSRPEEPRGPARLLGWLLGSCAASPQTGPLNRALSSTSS
Assay: Radioligand membrane binding assay: inhibition of [3H] PGD2 binding to CRTH2 (Scintillation Proximity Assay)
Conditions: inhibition of [3H] PGD2 binding to membranes of HEK-293 cells stably expressing human CRTH2; SPA; 10 point curve from 10 μM; room temperature, approximately 2 hours
Experimental: This radioligand membrane binding assay evaluates the ability of compounds to inhibit [^3H] Prostaglandin D2 (PGD2) binding to the cloned human CRTH2 receptor stably expressed in HEK-293 cells (expressing human CRTh2 receptor and α subunit or the heteronimeric G protein 16 were prepared by Biosignal Company) using Scintillation Proximity Assay.
A binding buffer containing 50 mM Tris-HCl (pH 7.5), 5 mM MgCl2 and 1 mM EDTA was prepared immediately prior to performing the assay. A bead/membrane solution at twice the final assay concentration comprising membranes (membranes bought from Biosignal) from the HEK-293 cells cloned to express CRTH2 receptor bound to and [3H] PGD2 at twotimes the final assay concentration were prepared and stored on ice before adding to wells. Cold PGD2 at twenty times the final assay concentration was prepared and stored on ice before adding to wells defining non-specific binding (NSB) corning plates #3653 were used for this assay.
10 mM stock concentrations of compounds in 100% DMSO were prepared and stored at room temperature. A 10 point concentration response curve was then constructed for each compound, starting at 10 μM (final assay concentration). The compounds were prepared at 40 times final assay concentrations with nine consequent-3-fold dilutions.
0.1 μl of each concentration of compound were added to the appropriate well of the 384 plate and 2 μl of cold PGD2 was added into the wells defining NSB. 20 μl of [^3H] PGD2 and then 20 μl of 2× of bead/membrane solution were then added to each well.
The plates were allowed to incubate at room temperature for approximately 2 hours and then counted on Packard Topcount using SPA tritium protocol for 1 minute/well.
The percent inhibition of PGD2 binding (PGD2 used at the KD value or lower) to the HEK-293 cell membranes was determined, the assay was always run as duplicate for n=1 for a total of n=2.

Ki [µM] | SMILES
< 60 | CC(=O)N(c1ccccc1)[C@@H]1C[C@H](C)N(C(=O)c2c(C)noc2C)c2ccccc21 (racemic) [Compound A-154, (±)-Cis-N-[1-(3,5-dimethyl-isoxazole-4-carbonyl)-2-methyl-1,2,3,4-tetrahydro-quinolin-4-yl]-N-phenyl-acetamide]
< 10 | CC(=O)N(c1ccccc1)[C@@H]1C[C@H](C)N(C(=O)C2CCCCC2)c2ccccc21 (racemic) [Compound A-157, (±)-Cis-N-(1-cyclohexanecarbonyl-2-methyl-1,2,3,4-tetrahydro-quinolin-4-yl)-N-phenyl-acetamide]
< 10 | CC(=O)N(c1ccccc1)[C@@H]1C[C@H](C)N(C(=O)c2cc(C)nn2C)c2ccccc21 (racemic) [Compound A-159, (±)-Cis-N-[1-(2,5-dimethyl-2H-pyrazole-3-carbonyl)-2-methyl-1,2,3,4-tetrahydro-quinolin-4-yl]-N-phenyl-acetamide]
< 10 | CCC(=O)N(c1ccc(C(F)(F)F)cc1)[C@@H]1C[C@H](C)N(C(=O)c2ccc(F)cc2)c2ccccc21 (racemic) [Compound B-13, (±)-Cis-N-[1-(4-Fluoro-benzoyl)-2-methyl-1,2,3,4-tetrahydro-quinolin-4-yl]-N-(4-trifluoromethyl-phenyl)-propionamide]
< 10 | COc1ccc(C(=O)N2c3ccccc3[C@H](N(C(C)=O)c3ccc(CC(=O)O)cc3)C[C@@H]2C)cc1 (racemic) [Compound B-39, (±)-Cis-(4-{acetyl-[1-(4-methoxy-benzoyl)-2-methyl-1,2,3,4-tetrahydro-quinolin-4-yl]-amino}-phenyl)-acetic acid]
< 10 | COc1ccc(C(=O)N2c3ccccc3[C@H](N(C(C)=O)c3cccc(C(=O)O)c3)C[C@@H]2C)cc1 (racemic) [Compound B-40, (±)-Cis-3-{acetyl-[1-(4-methoxy-benzoyl)-2-methyl-1,2,3,4-tetrahydro-quinolin-4-yl]-amino}-benzoic acid]
< 10 | CC(=O)N(c1ccc(Oc2ccccc2)cc1)[C@@H]1C[C@H](C)N(C(=O)c2ccc(F)cc2)c2ccccc21 (racemic) [Compound B-51, (±)-Cis-N-[1-(4-fluoro-benzoyl)-2-methyl-1,2,3,4-tetrahydro-quinolin-4-yl]-N-(4-phenoxy-phenyl)-acetamide]
< 60 | COc1cccc(C(=O)N2c3ccccc3[C@H](N(C(C)=O)C3CCCCC3)C[C@@H]2C)c1 (racemic) [Compound B-53, (±)-Cis-N-cyclohexyl-N-[1-(3-methoxy-benzoyl)-2-methyl-1,2,3,4-tetrahydro-quinolin-4-yl]-acetamide]
< 10 | CCC(=O)N(c1ccc(Cl)cc1)[C@@H]1C[C@H](C)N(C(=O)c2ccc(F)cc2)c2ccc(OC)cc21 (racemic) [Compound B-59, (±)-Cis-N-(4-chloro-phenyl)-N-[1-(4-fluoro-benzoyl)-6-methoxy-2-methyl-1,2,3,4-tetrahydro-quinolin-4-yl]-propionamide]
< 10 | CCC(=O)N(c1ccc(Cl)cc1)[C@@H]1C[C@H](C)N(C(=O)c2ccc(F)cc2)c2ccc(OCCN(CC)CC)cc21 (racemic) [Compound B-63, (±)-Cis-N-(4-Chloro-phenyl)-N-[6-(2-diethylamino-ethoxy)-1-(4-fluoro-benzoyl)-2-methyl-1,2,3,4-tetrahydro-quinolin-4-yl]-propionamide]
< 10 | CCOC(=O)C(C)(C)Oc1ccc2c(c1)[C@H](N(C(=O)CC)c1ccc(Cl)cc1)C[C@H](C)N2C(=O)c1ccc(F)cc1 (racemic) [Compound B-64, (±)-Cis-2-[4-[(4-chloro-phenyl)-propionyl-amino]-1-(4-fluoro-benzoyl)-2-methyl-1,2,3,4-tetrahydro-quinolin-6-yloxy]-2-methyl-propionic acid ethyl ester]
< 10 | CCC(=O)N(c1ccc(Cl)cc1)[C@@H]1C[C@H](C)N(C(=O)c2ccc(F)cc2)c2ccc(OCC(=O)O)cc21 (racemic) [Compound B-65, (±)-Cis-[4-[(4-chloro-phenyl)-propionyl-amino]-1-(4-fluoro-benzoyl)-2-methyl-1,2,3,4tetrahydro-quinolin-6-yloxy]-acetic acid]
< 10 | CCC(=O)N(c1ccc(Cl)cc1)[C@@H]1C[C@H](C)N(C(=O)c2ccc(F)cc2)c2ccc(OC(C)(C)C(=O)O)cc21 (racemic) [Compound B-66, (±)-Cis-2-[4-[(4-chloro-phenyl)-propionyl-amino]-1-(4-fluoro-benzoyl)-2-methyl-1,2,3,4-tetrahydro-quinolin-6-yloxy]-2-methyl-propionic acid]
< 10 | CCC(=O)N(c1ccc(Cl)cc1)[C@@H]1C[C@H](C)N(C(=O)c2ccc(F)cc2)c2ccc(N3CCOCC3)cc21 (racemic) [Compound B-70, (±)-Cis-N-(4-chloro-phenyl)-N-[1-(4-fluoro-benzoyl)-2-methyl-6-morpholin-4-yl-1,2,3,4-tetrahydro-quinolin-4-yl]-propionamide]
< 10 | CCC(=O)N(c1ccc(Cl)cc1)C1CC(C)N(C(=O)c2ccc(F)cc2)c2ccc(/C=C/C(=O)O)cc21 (racemic) [Compound B-73, (±)-Cis-3-[4-[(4-chloro-phenyl)-propionyl-amino]-1-(4-fluoro-benzoyl)-2-methyl-1,2,3,4-tetrahydro-quinolin-6-yl]-acrylic acid]
< 10 | COc1cccc(C(=O)N2c3c(C)cccc3[C@H](N(C(C)=O)c3ccc(Cl)cc3)C[C@@H]2C)c1 (racemic) [Compound B-74, (±)-Cis-N-(4-chloro-phenyl)-N-[1-(3-methoxy-benzoyl)-2,8-dimethyl-1,2,3,4-tetrahydro-quinolin-4-yl]-acetamide]
< 10 | CCN(CC)c1ccc(N(C(C)=O)[C@@H]2C[C@H](C)N(C(=O)c3ccc(N(C)C)cc3)c3cc(N(CC)CC)ccc32)cc1 (racemic) [Compound B-84, (±)-Cis-N-[7-diethylamino-1-(4-dimethylamino-benzoyl)-2-methyl-1,2,3,4-tetrahydro-quinolin-4-yl]-N-(4-diethylamino-phenyl)-acetamide]
< 10 | CCC(=O)N(c1ccc(Cl)cc1)[C@@H]1C[C@H](C)N(C(=O)c2ccc(F)cc2)c2cccc(OC)c21 (racemic) [Compound B-86, (±)-Cis-N-(4-chloro-phenyl)-N-[1-(4-fluoro-benzoyl)-5-methoxy-2-methyl-1,2,3,4-tetrahydro-quinolin-4-yl]-propionamide]
< 10 | CCC(=O)N(c1ccc(Cl)cc1)[C@@H]1C[C@H](CCc2ccccc2)N(C(=O)c2ccc(F)cc2)c2ccccc21 (racemic) [Compound B-97, (±)-Cis-N-(4-chloro-phenyl)-N-[1-(4-fluoro-benzoyl)-2-phenethyl-1,2,3,4-tetrahydro-quinolin-4-yl]-propionamide]
< 60 | COc1cccc(C(=O)N2c3ccccc3[C@H](N(C(C)=O)c3ccccc3)C[C@@H]2c2ccccc2)c1 (racemic) [Compound B-100, (±)-Cis-N-[1-(3-methoxy-benzoyl)-2-phenyl-1,2,3,4-tetrahydro-quinolin-4-yl]-N-phenyl-acetamide]
< 10 | CCOC(=O)[C@H]1C[C@@H](N(C(C)=O)c2ccccc2)c2ccccc2N1C(=O)c1ccc(F)cc1 (racemic) [Compound B-101, (±)-Cis-4-(acetyl-phenyl-amino)-1-(4-fluoro-benzoyl)-1,2,3,4-tetrahydro-quinoline-2-carboxylic acid ethyl ester]
< 10 | CC(=O)N(c1ccccc1)[C@@H]1C[C@H](C(=O)O)N(C(=O)c2ccc(F)cc2)c2ccccc21 (racemic) [Compound B-102, (±)-Cis-4-(acetyl-phenyl-amino)-1-(4-fluoro-benzoyl)-1,2,3,4-tetrahydro-quinoline-2-carboxylic acid]
< 10 | CCC[C@H]1C[C@@H](N(C(=O)CC)c2ccc(Cl)cc2)c2ccccc2N1C(=O)c1ccc(F)cc1 (racemic) [Compound B-103, (±)-Cis-N-(4-chloro-phenyl)-N-[1-(4-fluoro-benzoyl)-2-propyl-1,2,3,4-tetrahydro-quinolin-4-yl]-propionamide]
< 10 | CCC(=O)OC[C@H]1C[C@@H](N(C(=O)CC)c2ccc(Cl)cc2)c2ccccc2N1C(=O)c1ccc(F)cc1 (racemic) [Compound B-104, (±)-Cis-propionic acid 4-[(4-chloro-phenyl)-propionyl-amino]-1-(4-fluoro-benzoyl)-1,2,3,4-tetrahydro-quinolin-2-ylmethyl ester]
